Measurements taken from the OligoGym collection.
Values joined by “and” are separate entries in the source; they are usually repeats but may differ in a detail not shown here. Identical values can stand only once. After the bases stand the sugars from the 5' end (letter, count) and the backbone: PS all phosphorothioate, else s phosphorothioate and o phosphodiester by linkage. Methylation of C is not given here. e = 2'-O-(2-methoxyethyl) (MOE); k = constrained ethyl (cEt); d = 2'-deoxy (DNA)

Molecular target: IRF4
Details: ASO

## GGAAGTTTACACTGGA (sugars kkkddddddddkekek, PS)
MM.1R, 1 µM
  target mRNA inhibition: 43%

## GAGGGAGCTCATTTTG (sugars k3 d10 k3, PS)
SK-MEL-28, 4 µM
  target mRNA inhibition: 24%

## CGTAAACTGAAAGACC (sugars k3 d10 k3, PS)
SK-MEL-28, 4 µM
  target mRNA inhibition: 48%

## TCCAGAAAATTCAGCT (sugars k3 d10 k3, PS)
SK-MEL-28, 4 µM
  target mRNA inhibition: 48%

## ACTAATTCCATAGAGC (sugars k3 d10 k3, PS)
MM.1R, 0.0625 µM
  target mRNA inhibition: -18%
MM.1R, 0.074 µM
  target mRNA inhibition: -12%
MM.1R, 0.222 µM
  target mRNA inhibition: -13%
MM.1R, 0.25 µM
  target mRNA inhibition: -12%
MM.1R, 0.666 µM
  target mRNA inhibition: -10%
MM.1R, 1 µM
  target mRNA inhibition: -17%
MM.1R, 2 µM
  target mRNA inhibition: -4%
MM.1R, 4 µM
  target mRNA inhibition: -6%
SK-MEL-28, 4 µM
  target mRNA inhibition: 79%

## GAAGGATGGGACCGCC (sugars k3 d10 k3, PS)
SK-MEL-28, 4 µM
  target mRNA inhibition: 41%

## AAGCATTTTATCATCC (sugars kkkddddddddkekek, PS)
MM.1R, 1 µM
  target mRNA inhibition: 10%

## CGAGATATAAATAGCT (sugars k3 d10 k3, PS)
SK-MEL-28, 4 µM
  target mRNA inhibition: 53% and 58%

## TGTTACTTGCCACAGT (sugars k3 d10 k3, PS)
SK-MEL-28, 4 µM
  target mRNA inhibition: 39%

## CGCCATGGCTGATCGC (sugars k3 d10 k3, PS)
SK-MEL-28, 4 µM
  target mRNA inhibition: 53%

## GGTTGGCTGGTCTTTG (sugars k3 d10 k3, PS)
MM.1R, 0.0625 µM
  target mRNA inhibition: -2% and 15%
MM.1R, 0.25 µM
  target mRNA inhibition: 16% and 20%
MM.1R, 1 µM
  target mRNA inhibition: 49% and 35%
MM.1R, 4 µM
  target mRNA inhibition: 66% and 70%

## TCCTAACCCTACCCTT (sugars k3 d10 k3, PS)
SK-MEL-28, 4 µM
  target mRNA inhibition: 30%

## ATGTGATAGCTGAGCT (sugars k2 d9 e3 k2, PS)
MM.1R, 1 µM
  target mRNA inhibition: 0%

## TTAACCAATCCCAACA (sugars k3 d10 k3, PS)
SK-MEL-28, 4 µM
  target mRNA inhibition: 30%

## AACTTTTACCTGGTAT (sugars k3 d10 k3, PS)
SK-MEL-28, 4 µM
  target mRNA inhibition: 28%

## TGAGAGTAAACTTGGC (sugars k3 d10 k3, PS)
MM.1R, 0.0625 µM
  target mRNA inhibition: -3%
MM.1R, 0.074 µM
  target mRNA inhibition: 5%
MM.1R, 0.222 µM
  target mRNA inhibition: 1%
MM.1R, 0.25 µM
  target mRNA inhibition: 11%
MM.1R, 0.666 µM
  target mRNA inhibition: 18%
MM.1R, 1 µM
  target mRNA inhibition: 20%
MM.1R, 2 µM
  target mRNA inhibition: 32%
MM.1R, 4 µM
  target mRNA inhibition: 44%
SK-MEL-28, 4 µM
  target mRNA inhibition: 65%

## AAGCTTAGTTATCTGG (sugars k3 d10 k3, PS)
MM.1R, 0.0625 µM
  target mRNA inhibition: -13%
MM.1R, 0.25 µM
  target mRNA inhibition: -10%
MM.1R, 1 µM
  target mRNA inhibition: 35% and 13%
MM.1R, 4 µM
  target mRNA inhibition: 45%

## ATGTTAGCCAATTCCT (sugars k3 d10 k3, PS)
MM.1R, 1 µM
  target mRNA inhibition: 30% and 33%

## TGTGTATTACTCTTAG (sugars k3 d10 k3, PS)
MM.1R, 0.0625 µM
  target mRNA inhibition: 3%
MM.1R, 0.25 µM
  target mRNA inhibition: 20%
MM.1R, 1 µM
  target mRNA inhibition: 75% and 62%
MM.1R, 4 µM
  target mRNA inhibition: 93%

## TTAGAGGACAGTGACT (sugars k3 d10 k3, PS)
SK-MEL-28, 4 µM
  target mRNA inhibition: 18%

## CTGCATGAGGGTGACA (sugars k3 d10 k3, PS)
SK-MEL-28, 4 µM
  target mRNA inhibition: 19%

## TCCTAGGTTTCAGTTG (sugars k3 d10 k3, PS)
SK-MEL-28, 4 µM
  target mRNA inhibition: 48%

## AGTGATGTCAGGTTTT (sugars kkdddddddddkekek, PS)
MM.1R, 1 µM
  target mRNA inhibition: 39%

## GAAGTACGAGCACATG (sugars k3 d10 k3, PS)
MM.1R, 1 µM
  target mRNA inhibition: 18%

## ATTATATACTGGTTGG (sugars kkdddddddddkdkdk, PS)
MM.1R, 1 µM
  target mRNA inhibition: 28%

## ACATTACTAGATTGTA (sugars k3 d10 k3, PS)
SK-MEL-28, 4 µM
  target mRNA inhibition: 41%

## ACTTTTAGAGAGGAGA (sugars k2 d9 e3 k2, PS)
MM.1R, 1 µM
  target mRNA inhibition: 36%

## CCTGAAGCTTAGTTAT (sugars k3 d10 k3, PS)
SK-MEL-28, 4 µM
  target mRNA inhibition: 35%

## ATTACTGCTTGAGGTT (sugars k3 d10 k3, PS)
SK-MEL-28, 4 µM
  target mRNA inhibition: 62%

## TGTAACTGACTAACAG (sugars k3 d10 k3, PS)
MM.1R, 1 µM
  target mRNA inhibition: -31%

## AGTAATTTTAAGGCCC (sugars k3 d10 k3, PS)
SK-MEL-28, 4 µM
  target mRNA inhibition: 60%

## ACTTAAGCAAGTGGAG (sugars k3 d10 k3, PS)
SK-MEL-28, 4 µM
  target mRNA inhibition: 63%

## GCACACGCAGCCTCTA (sugars k3 d10 k3, PS)
SK-MEL-28, 4 µM
  target mRNA inhibition: 5%

## GCTAAACCCAAAATAC (sugars k3 d10 k3, PS)
SK-MEL-28, 4 µM
  target mRNA inhibition: 4%

## CAGGAGAGCCCCTACC (sugars k3 d10 k3, PS)
MM.1R, 1 µM
  target mRNA inhibition: -8%

## CTGCTTGAGGTTTTCC (sugars k3 d10 k3, PS)
SK-MEL-28, 4 µM
  target mRNA inhibition: 74%

## AACAATCCTGTACACT (sugars k3 d10 k3, PS)
SK-MEL-28, 4 µM
  target mRNA inhibition: 22%

## AATAAGATCCCACGAA (sugars k3 d10 k3, PS)
SK-MEL-28, 4 µM
  target mRNA inhibition: 15%

## TACTGCTTGAGGTTTT (sugars kkkddddddddkekek, PS)
MM.1R, 1 µM
  target mRNA inhibition: -8%

## CAGTGATGTCAGGTTT (sugars kddddddddddkekek, PS)
MM.1R, 1 µM
  target mRNA inhibition: 46%

## CCACGAAGGGCAGTGC (sugars k3 d10 k3, PS)
MM.1R, 1 µM
  target mRNA inhibition: 0%

## TGGACCCACGAAGATT (sugars k3 d10 k3, PS)
SK-MEL-28, 4 µM
  target mRNA inhibition: 38%

## TCCTGGCAGTGCTCTC (sugars k3 d10 k3, PS)
SK-MEL-28, 4 µM
  target mRNA inhibition: 60%

## GATAGCTGAGCTGATC (sugars k3 d10 k3, PS)
SK-MEL-28, 4 µM
  target mRNA inhibition: 32%

## TTGGAAAGACAAGTGC (sugars k3 d10 k3, PS)
SK-MEL-28, 4 µM
  target mRNA inhibition: 15%

## CTAGATTGTAGGACAG (sugars k3 d10 k3, PS)
SK-MEL-28, 4 µM
  target mRNA inhibition: 48%

## TGTAGTATGAGAAACG (sugars k3 d10 k3, PS)
SK-MEL-28, 4 µM
  target mRNA inhibition: 69%

## TAAGGAACAAGTGTAT (sugars k3 d10 k3, PS)
SK-MEL-28, 4 µM
  target mRNA inhibition: 18%

## ATAGGAAGCACTGGCA (sugars k3 d10 k3, PS)
SK-MEL-28, 4 µM
  target mRNA inhibition: 42%

## GGGAATCCCTTATTAG (sugars k3 d10 k3, PS)
MM.1R, 1 µM
  target mRNA inhibition: 0%

## AACAATACTGTAAGGG (sugars k3 d10 k3, PS)
SK-MEL-28, 4 µM
  target mRNA inhibition: 51%

## CACTAATACCTACCTG (sugars k3 d10 k3, PS)
SK-MEL-28, 4 µM
  target mRNA inhibition: 6%

## TAGTGTTCCAGGAGAT (sugars k3 d10 k3, PS)
MM.1R, 0.074 µM
  target mRNA inhibition: 15%
MM.1R, 0.222 µM
  target mRNA inhibition: 29%
MM.1R, 0.666 µM
  target mRNA inhibition: 52%
MM.1R, 1 µM
  target mRNA inhibition: 53%
MM.1R, 2 µM
  target mRNA inhibition: 80%

## ATGTGTTCTGGTAAAT (sugars k3 d10 k3, PS)
MM.1R, 1 µM
  target mRNA inhibition: 34%

## AGCAGTGATGTCAGGT (sugars kkdddddddddkdkdk, PS)
MM.1R, 1 µM
  target mRNA inhibition: 55% and 48%

## TTTGAAGCAACACGGG (sugars k3 d10 k3, PS)
SK-MEL-28, 4 µM
  target mRNA inhibition: 47%

## ACCAAGCTGGGTTTGC (sugars k3 d10 k3, PS)
SK-MEL-28, 4 µM
  target mRNA inhibition: 53%

## AGGAGAGGCTGAGATA (sugars k3 d10 k3, PS)
SK-MEL-28, 4 µM
  target mRNA inhibition: 21%

## GACTTCGGGAGATACG (sugars k3 d10 k3, PS)
SK-MEL-28, 4 µM
  target mRNA inhibition: 14%

## ACCTCAGTTTGTGAAG (sugars kddddddddddkekek, PS)
MM.1R, 1 µM
  target mRNA inhibition: 18%

## GCAGAACGAGGTAAAT (sugars k3 d10 k3, PS)
SK-MEL-28, 4 µM
  target mRNA inhibition: 62%

## GTGCTCATGGCTGATA (sugars k3 d10 k3, PS)
MM.1R, 1 µM
  target mRNA inhibition: 24%

## GAATGAGGAAGCCGTT (sugars k3 d10 k3, PS)
SK-MEL-28, 4 µM
  target mRNA inhibition: 39%

## CTCAATAATCTCCCAG (sugars k3 d10 k3, PS)
SK-MEL-28, 4 µM
  target mRNA inhibition: 53%

## TGTAGTATGAGAAACG (sugars kkdddddddddekeke, PS)
MM.1R, 1 µM
  target mRNA inhibition: 13%

## CGAGGTTGCCGAGATA (sugars k3 d10 k3, PS)
MM.1R, 1 µM
  target mRNA inhibition: 66% and 60%

## GAAAGAATGGCGCATA (sugars k3 d10 k3, PS)
SK-MEL-28, 4 µM
  target mRNA inhibition: 49%

## TCATGATGTATACCAA (sugars k3 d10 k3, PS)
SK-MEL-28, 4 µM
  target mRNA inhibition: 65%

## AGCAGAACGAGGTAAA (sugars k3 d10 k3, PS)
SK-MEL-28, 4 µM
  target mRNA inhibition: 70%

## GTATGTAGCAATGTGA (sugars k3 d10 k3, PS)
SK-MEL-28, 4 µM
  target mRNA inhibition: 21%
